The structures appear in SMILES notation. Bounds are passed on as bounds.

For the first test, the target named is T1, Recombinant human cathepsin A (Homo sapiens, UniProt P10619).
T1 construct: Recombinant human cathepsin A (residues 29-480, with a C-terminal 10-His tag); 10-His (C); purchased R&D Systems 1049-SE
T1 sequence (P10619 29-312 limits assumed): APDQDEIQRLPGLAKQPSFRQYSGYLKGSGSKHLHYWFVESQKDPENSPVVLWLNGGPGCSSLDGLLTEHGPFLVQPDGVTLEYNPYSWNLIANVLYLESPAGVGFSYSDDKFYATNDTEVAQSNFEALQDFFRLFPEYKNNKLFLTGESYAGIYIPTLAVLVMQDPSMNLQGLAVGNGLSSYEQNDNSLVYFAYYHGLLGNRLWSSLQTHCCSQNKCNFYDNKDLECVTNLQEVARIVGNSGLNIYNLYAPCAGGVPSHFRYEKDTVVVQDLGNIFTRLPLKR
T1 sequence (P10619 327-480 limits assumed): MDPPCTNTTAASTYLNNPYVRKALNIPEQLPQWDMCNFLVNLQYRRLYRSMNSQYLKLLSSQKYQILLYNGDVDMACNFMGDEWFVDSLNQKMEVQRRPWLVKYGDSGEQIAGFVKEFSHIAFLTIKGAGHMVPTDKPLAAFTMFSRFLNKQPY
Put plainly: Cathepsin A inhibitory activity. Type of test: biochemical. As to conditions: pharmacological test "Cathepsin A inhibitory activity"; IC50 given as class A/B/C; read-out: Activity (2): Cathepsin A inhibitory activity, IC50 class. A digest of the protocol: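 Read-out was microfluidic separation of cleaved vs. uncleaved Bodipy FL-bradykinin (2 μM), giving turnover, % inhibition and IC50. Compound and 833 ng/ml enzyme met for 15 min RT in pH 5.5 MES/DTT before substrate (15 min RT). The 29-480 His-tagged human enzyme was first activated by cathepsin L, then E-64 (10 μM).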
Consider `COc1ccc(C(CC(=O)O)NC(=O)c2cc(O)n(-c3ccccc3Cl)n2)c(Cl)c1` (centres unmarked) [Example 210], for which the IC50 (in general, the concentration needed to halve the response being measured) lay within 100 to 1000 nM. The same measure, in the same setting: the figure for `COc1ccc(Cl)cc1C(CC(=O)O)NC(=O)c1cc(O)n(-c2ccc(F)cc2F)n1` (centres unmarked) [Example 178] is 1000 to 30000 nM. For `O=C(O)C[C@H](NC(=O)c1cc(O)n(-c2cccc(Cl)c2)n1)c1cccnc1` [Example 268], the IC50 was in the range of 1000 to 30000 nM. Same read-out and setting: under `CCc1ccc(C(CC(=O)O)NC(=O)c2cc(O)n(-c3ccccc3Cl)n2)cc1` (centres unmarked) [Example 224] stands 100 to 1000 nM; under `O=C(O)CC(NC(=O)c1cc(O)n(-c2ccccc2Cl)n1)c1ccccc1F` (centres unmarked) [Example 208], 100 to 1000 nM; under `O=C(O)C[C@H](NC(=O)c1cc(O)n(-c2cccc(Cl)c2)n1)c1ccc(Cl)cc1Cl` [Example 266], 100 to 1000 nM. The same measure, in the same setting: the figure for `O=C(O)C[C@H](NC(=O)c1cc(O)n(-c2ccc(F)cc2F)n1)c1cccc(Cl)c1Cl` [Example 181] is less than 100 nM; for `O=C(O)CC(NC(=O)c1cc(O)n(-c2ccccc2)n1)c1ccc(-c2cccc(F)c2)cc1` (centres unmarked) [Example 171] it is 100 to 1000 nM.

Staying with this test, now noted: read-out: Activity (2): Cathepsin A inhibitory activity (IC50 class).
Regarding `Cc1ccccc1[C@H](CC(=O)O)NC(=O)c1cc(OCC2CCCO2)n(-c2ccccc2F)n1` (some centres unmarked) [Example 642], the IC50 was less than 100 nM. On the same count and under the same terms, the figure for `CC(C)[C@@](C)(O)COc1cc(C(=O)NC(CC(=O)O)C2CCCCC2)nn1-c1ccccc1F` (stereo partly drawn) [Example 786, 3-Cyclohexyl-3-{[1-(2-fluoro-phenyl)-5-((R)-2-hydroxy-2,3-dimethyl-butoxy)-1H-pyrazole-3-carbonyl]-amino}-propionic acid] is less than 100 nM; for `CCOc1cc(C(=O)N[C@@H](CC(=O)O)c2ccccc2)nn1-c1ccccc1Cl` [Example 726] it is 100 to 1000 nM. The same measure, in the same setting: the figure for `O=C(O)CC(NC(=O)c1cc(O)n(-c2ccccc2Cl)n1)c1ccc(-c2ccccc2Cl)cc1` (centres unmarked) [Example 591] is 100 to 1000 nM. Same read-out and setting: under `CC(C)(C)[C@](C)(O)COc1cc(C(=O)NC(CC(=O)O)C2CCCCC2)nn1-c1ccccc1F` (stereo partly drawn) [Example 773, 3-Cyclohexyl-3-{[1-(2-fluoro-phenyl)-5-((S)-2-hydroxy-2,3,3-trimethyl-butoxy)-1H-pyrazole-3-carbonyl]-amino}-propionic acid] stands less than 100 nM. As to `COc1cccc([C@H](CC(=O)O)NC(=O)c2cc(OC)n(-c3ccccc3F)n2)c1` [Example 669], the IC50 is 100 to 1000 nM. Regarding `Cc1ccccc1[C@H](CC(=O)O)NC(=O)c1cc(OC[C@](C)(O)C(C)C)n(-c2ccccc2F)n1` [Example 765, (S)-3-{[1-(2-Fluoro-phenyl)-5-((R)-2-hydroxy-2,3-dimethyl-butoxy)-1H-pyrazole-3-carbonyl]-amino}-3-o-tolyl-propionic acid], the IC50 was less than 100 nM. As to `Cc1ccccc1[C@H](CC(=O)O)NC(=O)c1cc(OCC(C)(O)C2CC2)n(-c2ccccc2F)n1` (stereo partly drawn) [Example 757, (S)-3-{[5-(2-Cyclopropyl-2-hydroxy-propoxy)-1-(2-fluoro-phenyl)-1H-pyrazole-3-carbonyl]-amino}-3-o-tolyl-propionic acid], the IC50 was less than 100 nM. Turning to `COc1cc(C(=O)N[C@@H](CC(=O)O)c2cccc(Cl)c2Cl)nn1-c1ccccc1` [Example 596], the IC50 is less than 100 nM. Take `COc1cccc([C@H](CC(=O)O)NC(=O)c2cc(OCC3CC3)n(-c3ccccc3F)n2)c1` [Example 689]: the IC50 is 100 to 1000 nM. Still for that read-out and setting: under `COc1cc(C(=O)N[C@@H](CC(=O)O)c2ccccc2C)nn1-c1cc(F)ccc1F` [Example 610] stands less than 100 nM.

The test is the same for the next values; noted with them: read-out: Activity (2): Cathepsin A inhibitory activity, IC50 class.
As to `COc1ccccc1[C@H](CC(=O)O)NC(=O)c1cc(O)n(-c2ccc(Cl)cc2)n1` [Example 274], the IC50 fell in the range of 1000 to 30000 nM. The same measure, in the same setting: under `O=C(O)CC(NC(=O)c1cc(O)n(-c2ccccc2)n1)c1ccc(C(F)(F)F)cc1` (centres unmarked) [Example 71] stands 1000 to 30000 nM; under `O=C(O)CC(NC(=O)c1cc(O)n(-c2ccc(F)cc2)n1)c1cccc(Cl)c1Cl` (centres unmarked) [Example 352], 100 to 1000 nM. Still for that read-out and setting: under `O=C(O)CC(NC(=O)c1cc(O)n(-c2ccc(F)cc2F)n1)c1cccc(C(F)(F)F)c1F` (centres unmarked) [Example 385, 3-{[1-(2,4-Difluoro-phenyl)-5-hydroxy-1H-pyrazole-3-carbonyl]-amino}-3-(2-fluoro-3-trifluoromethyl-phenyl)-propionic acid] stands less than 100 nM; under `COc1cccc([C@H](CC(=O)O)NC(=O)c2cc(OC[C@](C)(O)C(C)C)n(-c3ccccc3F)n2)c1` [Example 806, (S)-3-{[1-(2-Fluoro-phenyl)-5-((R)-2-hydroxy-2,3-dimethyl-butoxy)-1H-pyrazole-3-carbonyl]-amino}-3-(3-methoxy-phenyl)-propionic acid], less than 100 nM; under `COc1ccccc1[C@H](CC(=O)O)NC(=O)c1cc(OC[C@@](C)(O)C(C)(C)C)n(-c2ccccc2F)n1` [Example 810, (S)-3-{[1-(2-Fluoro-phenyl)-5-((S)-2-hydroxy-2,3,3-trimethyl-butoxy)-1H-pyrazole-3-carbonyl]-amino}-3-(2-methoxy-phenyl)-propionic acid], less than 100 nM.

Consider `CC(C)C(C)(O)COc1cc(C(=O)NC(CC(=O)O)C2CCCCC2)nn1-c1ccccc1F` (centres unmarked) [Example 813, 3-Cyclohexyl-3-{[1-(2-fluoro-phenyl)-5-(2-hydroxy-2,3-dimethyl-butoxy)-1H-pyrazole-3-carbonyl]-amino}-propionic acid], for which the half-maximal inhibitory concentration (IC50) is less than 100 nM. On the same count and under the same terms, under `O=C(O)CC(NC(=O)c1cc(O)n(-c2ccc(F)cc2F)n1)c1cccc(Cl)c1` (centres unmarked) [Example 380] stands 100 to 1000 nM; under `COc1ccc(C(CC(=O)O)NC(=O)c2cc(O)n(-c3ccccc3)n2)c(F)c1` (centres unmarked) [Example 92], 100 to 1000 nM; under `O=C(O)C[C@H](NC(=O)c1cc(O)n(-c2ccccc2)n1)c1ccc(Cl)cc1` [Example 98], 100 to 1000 nM.

The same test, now with this note: recombinant human cathepsin A 833 ng/ml, Bodipy FL-labeled bradykinin 2 μM, pH 5.5; read-out: CATH-A IC50.
For `O=C(O)C[C@H](NC(=O)c1cc(O)n(-c2ccccc2Cl)n1)c1ccccc1Cl` [Example 507, (S)-3-(2-Chloro-phenyl)-3-{[1-(2-chloro-phenyl)-5-hydroxy-1H-pyrazole-3-carbonyl]-amino}-propionic acid], the IC50 stood at 161 nM. Take `Cc1c(F)cccc1C(CC(=O)O)NC(=O)c1cc(O)n(-c2cccc(Cl)c2)n1` (centres unmarked) [Example 508, 3-{[1-(3-Chloro-phenyl)-5-hydroxy-1H-pyrazole-3-carbonyl]-amino}-3-(3-fluoro-2-methyl-phenyl)-propionic acid]: the IC50 turned out to be 137 nM. Still for that read-out and setting: the figure for `O=C(O)CC(NC(=O)c1cc(O)n(-c2ccc(F)cc2F)n1)c1cccc(C(F)(F)F)c1F` (centres unmarked) [Example 385, 3-{[1-(2,4-Difluoro-phenyl)-5-hydroxy-1H-pyrazole-3-carbonyl]-amino}-3-(2-fluoro-3-trifluoromethyl-phenyl)-propionic acid] is 60.7 nM; for `Cc1ccc([C@H](CC(=O)O)NC(=O)c2cc(O)n(-c3ccccc3)n2)cc1` [Example 445, (S)-3-[(5-Hydroxy-1-phenyl-1H-pyrazole-3-carbonyl)-amino]-3-p-tolyl-propionic acid] it is 130 nM.

Still in this test, the particulars now being: recombinant human cathepsin A; read-out: Activity (2): Cathepsin A inhibitory activity, IC50 class.
Take `O=C(O)C[C@H](NC(=O)c1cc(O)n(-c2ccccc2Cl)n1)c1ccccc1Cl` [Example 507, (S)-3-(2-Chloro-phenyl)-3-{[1-(2-chloro-phenyl)-5-hydroxy-1H-pyrazole-3-carbonyl]-amino}-propionic acid]: the IC50 fell in the range of 100 to 1000 nM. `COc1cc(C(=O)N[C@@H](CC(=O)NC2CCNC2=O)c2ccccc2C)nn1-c1ccccc1F` (stereo partly drawn) [Example 931, 1-(2-Fluoro-phenyl)-5-methoxy-1H-pyrazole-3-carboxylic acid [(S)-2-(2-oxo-pyrrolidin-3-ylcarbamoyl)-1-o-tolyl-ethyl]-amide]: the IC50 lay within 1000 to 30000 nM.

Take `Cc1c(F)cccc1C(CC(=O)O)NC(=O)c1cc(O)n(-c2cccc(Cl)c2)n1` (centres unmarked) [Example 508, 3-{[1-(3-Chloro-phenyl)-5-hydroxy-1H-pyrazole-3-carbonyl]-amino}-3-(3-fluoro-2-methyl-phenyl)-propionic acid]: the IC50 lay within 100 to 1000 nM. The same measure, in the same setting: the figure for `Cc1ccc([C@H](CC(=O)O)NC(=O)c2cc(O)n(-c3ccccc3)n2)cc1` [Example 445, (S)-3-[(5-Hydroxy-1-phenyl-1H-pyrazole-3-carbonyl)-amino]-3-p-tolyl-propionic acid] is 100 to 1000 nM; for `COc1cc(C(=O)N[C@@H](CC(=O)NCC#N)c2ccccc2C)nn1-c1ccccc1F` [Example 926, 1-(2-Fluoro-phenyl)-5-methoxy-1H-pyrazole-3-carboxylic acid [(S)-2-(cyanomethyl-carbamoyl)-1-o-tolyl-ethyl]-amide] it is 1000 to 30000 nM.

Values taken from US8664257B2, “Oxygen-substituted 3-heteroaroylamino-propionic acid derivatives and their use as pharmaceuticals” (Sanofi, priority 2010, dated 2014).
